{
  "source": "patent US20210361581A1",
  "about": "“ADDITIVE FOR A POWDER MATERIAL INTENDED FOR COMPACTION INTO SHAPED BODIES” (IOI OLEO GMBH, priority 2018, published 2021)",
  "key": {"[1]": {"conditions": "Lopes et al., J. Pharm. Sci. 104: 4257-4265, 2015; cited from earlier work"}, "[2]": {"assay": "Contact angle with water (hydrophobicity)", "format": "physicochemical", "conditions": "16 weeks at room temperature (20° C.) and at 40° C., against start value", "experimental": "An advantageous property of the PGFEs for an additive in accordance with claim 1 which should be considered is the hydrophobicity, which can be determined by determining the contact angle. The determination of the hydrophobicity is carried out by determining the contact angle between the PGFE in the solid physical state and a droplet of purified water. According to Young's equation, cos θ=(γSV−γSL)/γLV, wherein γSL is the interfacial tension between the PGFE and water, γLV is the interfacial tension of the water droplet and γSV is the surface tension between the PGFE and the surrounding air. θ is the contact angle. Thus, the larger the contact angle θ, the higher is the surface tension between the PGFE and the water and the higher is the hydrophobicity of the PGFE under investigation. The contact angles for the proposed polyglycerol fatty acid esters also correlate with the HLB value which is often used in pharmaceutical technology, which is on a scale of 0 to 20 and provides information regarding the ratio of lipophilic to hydrophilic molecular fractions, wherein the hydrophilic fraction increases with increasing HLB value. […]"}},
  "data": [
    {"smiles": "CCCCCCCCCCCCCCCCCC(=O)OCC(COC(=O)CCCCCCCCCCCCCCCCC)OC(=O)CCCCCCCCCCCCCCCCC", "note": "[glycerol tristearate]", "values": [
      {"measurement": "increase in the crystal thickness after complete transformation of a- into b-modification", "setting": "[1]", "value": "approximately 67%"},
      {"measurement": "variation (deviation) of contact angle with water after 16 weeks", "setting": "[2]", "value": 40, "unit": "°"}
    ]}
  ]
}
